Experimental data taken from patent publication US9708297B2, “CGRP receptor antagonists” (Eli Lilly and Company, priority 2015, dated 2017).

What was measured:
CGRP receptor = experiment: Capsaicin-induced dermal blood flow (DBF), laser Doppler imaging, in nonhuman primates; type: in vivo; details: 90 min prior to capsaicin, cynomolgus NHP, compared to vehicle
Source text: Capsaicin-induced dermal blood flow (DBF) may be used as a target engagement biomarker to assess CGRP receptor activity in nonhuman primates (NHPs). Methods are adapted from earlier published procedures [Hershey et al., Regulatory Peptides, Volume 127, Issue 1-3, pp. 71-77, 2005].
Animal studies may be performed under protocols approved by the Covance Institutional Animal Care and Use Committee. Cynomolgus NHPs may be used given the close homology between NHP and human CGRP receptor. The study population may include healthy, CGRP antagonist naive cynomolgus NHP males weighing ˜3-4 kg.
Cynomolgus NHPs are enrolled in the study based on prescreening for capsaicin responsiveness. […] NHPs are used in a cross over design in which all NHPs received all doses after a two week wash-out period. Total n=10 NHPs per group. […]
Analysis and Statistics: LDI repeat scans are analyzed using Moor software v.5.2 (Moor Instruments, Wilmington, Del.) by region of interest signal analysis, and Microsoft Excel worksheets are used for averaging the signal from the regions of interest at a given time point. […] Analyzed data is entered into Graphpad PRISM® 4.0 for graphing and a repeated measurement mixed-effect model in SAS® 9.1 is used for statistical analysis. Data is expressed as mean+/−SD.

[1] = target: T1, hCGRP (human calcitonin gene-related peptide) receptor (Homo sapiens, UniProt O60894+Q16602); experiment: Inhibition of cAMP production by CGRP receptor antagonists (HTRF) in SK-N-MC cells; type: cell-based; details: SK-N-MC cells endogenously expressing hCGRP receptor; human CGRP 0.8 nM as agonist; Kb=IC50/[1+([Agonist]/EC50)]; mean ± SEM
T1 construct: SK-N-MC neuroblastoma cells (ATCC® HTB-10™) that endogenously express the hCGRP receptor; host or cells: SK-N-MC neuroblastoma cells
Description: The hCGRP (human calcitonin gene-related peptide) receptor is functionally coupled to the Gas proteins. Stimulation of hCGRP results in an increased synthesis of intracellular cAMP and can be blocked by the addition of receptor antagonists. Receptor activity is thus a reflection of the amount of cAMP present within cells which can be detected using standard in vitro technology.
Cultured SK-N-MC neuroblastoma cells (ATCC® HTB-10™) that endogenously express the hCGRP receptor are grown in Eagle's Minimum essential medium (HYCLONE™) supplemented with 10% heat-inactivated Fetal bovine serum (FBS; GIBCO®), Non-Essential Amino Acids (GIBCO®), 1 mM sodium pyruvate, 2 mM L-glutamine, 100 U/mL of penicillin, and 10 μg/mL of streptomycin to about 70% confluency. After providing fresh medium, the cells are incubated at 37° C. overnight. On the day of the assay, cells are detached using ACCUTASE® (MP Biomedicals), resuspended in assay buffer [Hank's Balanced Salt Solution/Dulbecco's phosphate-buffered saline with […] each of CaCl2 and MgCl2 mixed 1:2, 3.3 mM 4-(2-hydroxyethyl)-1-piperazineethanesulfonic acid, 0.03% bovine serum albumin, and 0.5 mM 1-methyl-3-isobutylxanthine (as inhibitor of […])], and seeded 3-5K/well into 384-well, poly-D-lysine coated white plates (BD Biosciences).
For dose-response studies, compounds are serially diluted 1:3 in dimethyl sulfoxide and then 1:10 into assay buffer. Human CGRP (0.8 nM; Bachem) as a receptor-specific agonist for the hCGRP receptor is mixed with diluted compound and added to the cells as the challenge stimulant at their EC80 concentrations.
The amount of intracellular cAMP is quantitated using HTRF technology (Cisbio) as per vendor instructions. Briefly, cAMP-d2 conjugate and anti-cAMP-cryptate conjugate in lysis buffer are incubated with the treated cells at RT for 90 min. The HTRF signal is immediately detected using an ENVISION® plate reader (Perkin-Elmer) to calculate the ratio of fluorescence at […]. The raw data are converted to cAMP amount (pmole/well) using a cAMP standard curve generated for each experiment. Relative EC50 values are calculated from the top-bottom range of the concentration response curve using a four-parameter logistic curve fitting program (ACTIVITYBASE® v5.3.1.22 or GENEDATA SCREENER® v12.0.4), and Kb values are estimated as agonist-corrected IC50 values using the equation: Kb=(IC50)/[1+([Agonist]/EC50)]. Estimated Kb values are reported as mean values±SEM, averaged from the number of runs (n).
Following the procedure essentially as described above, the compounds of Examples 1-12 have a Kb measured at human CGRP as shown in Table 3.

T1 sequence (Q16602 23-461): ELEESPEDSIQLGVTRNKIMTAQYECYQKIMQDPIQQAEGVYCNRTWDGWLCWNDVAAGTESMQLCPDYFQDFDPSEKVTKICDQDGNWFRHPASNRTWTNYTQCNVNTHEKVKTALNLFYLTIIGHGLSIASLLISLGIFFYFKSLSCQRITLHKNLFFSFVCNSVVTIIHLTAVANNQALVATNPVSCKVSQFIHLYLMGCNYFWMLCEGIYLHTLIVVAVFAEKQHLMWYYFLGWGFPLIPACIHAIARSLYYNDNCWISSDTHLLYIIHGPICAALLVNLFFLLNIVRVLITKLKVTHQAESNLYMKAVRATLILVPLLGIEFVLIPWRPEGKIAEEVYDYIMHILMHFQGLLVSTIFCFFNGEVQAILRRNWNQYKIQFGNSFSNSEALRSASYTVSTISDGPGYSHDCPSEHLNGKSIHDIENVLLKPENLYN
T1 sequence (O60894 27-148): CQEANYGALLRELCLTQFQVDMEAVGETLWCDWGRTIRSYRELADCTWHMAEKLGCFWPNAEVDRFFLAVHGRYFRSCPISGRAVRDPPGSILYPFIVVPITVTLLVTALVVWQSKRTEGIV

SMILES: Cc1cc(CNC(=O)c2ccc([C@@H](C)[C@]3(C)CC(=O)NC3=O)cc2)cc(C)n1 [Example 1, N-[(2,6-dimethylpyridin-4-yl)methyl]-4-{(1R)-1-[(3S)-3-methyl-2,5-dioxopyrrolidin-3-yl]ethyl}benzamide]
- group mean inhibition of capsaicin-induced blood flow increase (CGRP receptor; 3 mg/kg orally, p<0.003): 27.4%
- group mean inhibition of capsaicin-induced blood flow increase (CGRP receptor; 30 mg/kg orally, p<0.00001): 40.6%
- Kb [1]: 0.546 ± 0.226 nM

SMILES: Cc1cc(C)nc(CNC(=O)c2ccc([C@@H](C)[C@]3(C)CC(=O)NC3=O)cc2)c1 [Example 2, N-[(4,6-dimethyl-2-pyridyl)methyl]-4-[(l R)-1-[(3S)-3-methyl-2,5-dioxo-pyrrolidin-3-yl]ethyl]benzamide]
- Kb [1]: 2.22 ± 1.47 nM

SMILES: Cc1cc(C#N)nc(CNC(=O)c2ccc([C@@H](C)[C@]3(C)CC(=O)NC3=O)cc2)c1 [Example 3, N-[(6-cyano-4-methyl-2-pyridyl)methyl]-4-[(1R)-1-[(3S)-3-methyl-2,5-dioxo-pyrrolidin-3-yl]ethyl]benzamide]
- Kb [1]: 1.51 ± 0.14 nM

SMILES: Cc1cc(CNC(=O)c2ccc([C@@H](C)[C@]3(C)CC(=O)NC3=O)cc2)cc(C#N)n1 [Example 4, N-[(2-cyano-6-methyl-4-pyridyl)methyl]-4-[(1R)-1-[(3S)-3-methyl-2,5-dioxo-pyrrolidin-3-yl]ethyl]benzamide]
- Kb [1]: 23.5 ± 0.925 nM

SMILES: Cc1cc(CNC(=O)c2ccc([C@@H](C)[C@]3(C)CC(=O)NC3=O)cc2)cc(C(C)C)n1 [Example 5, N-[(2-isopropyl-6-methyl-4-pyridyl)methyl]-4-[(R)-1-[(3S)-3-methyl-2,5-dioxo-pyrrolidin-3-yl]ethyl]benzamide]
- Kb [1]: 0.718 ± 0.0045 nM

SMILES: Cc1cc(CNC(=O)c2ccc([C@@H](C)[C@]3(C)CC(=O)NC3=O)cc2)cc(C2CC2)n1 [Example 6, N-[(2-cyclopropyl-6-methyl-4-pyridyl)methyl]-4-[(1R)-1-[(3S)-3-methyl-2,5-dioxo-pyrrolidin-3-yl]ethyl]benzamide]
- Kb [1]: 0.375 ± 0.172 nM

SMILES: Cc1cc(CNC(=O)c2ccc([C@@H](C)[C@]3(C)CC(=O)NC3=O)cc2)nc(C2CC2)c1 [Example 7, N-[(6-cyclopropyl-4-methyl-2-pyridyl)methyl]-4-[(1R)-1-[(3S)-3-methyl-2,5-dioxo-pyrrolidin-3-yl]ethyl]benzamide]
- Kb [1]: 0.582 ± 0.228 nM

SMILES: Cc1cc(CNC(=O)c2ccc([C@@H](C)[C@]3(C)CC(=O)NC3=O)cn2)cc(C)n1 [Example 8, N-[(2,6-dimethyl-4-pyridyl)methyl]-5-[(1R)-1-[(3S)-3-methyl-2,5-dioxo-pyrrolidin-3-yl]ethyl]pyridine-2-carboxamide]
- Kb [1]: 1.25 ± 0.0045 nM

SMILES: Cc1cc(CNC(=O)c2ccc([C@@H](C)[C@]3(C)CC(=O)NC3=O)cn2)cc(C2CC2)n1 [Example 9, N-[(2-cyclopropyl-6-methyl-4-pyridyl)methyl]-5-[(1R)-1-[(3S)-3-methyl-2,5-dioxo-pyrrolidin-3-yl]ethyl]pyridine-2-carboxamide]
- Kb [1]: 1.15 ± 0.181 nM

SMILES: CCc1cc(CNC(=O)c2ccc([C@@H](C)[C@]3(C)CC(=O)NC3=O)cc2)cc(C)n1 [Example 10, N-[(2-ethyl-6-methylpyridin-4-yl)methyl]-4-{(1R)-1-[(3S)-3-methyl-2,5-dioxopyrrolidin-3-yl]ethyl}benzamide]
- Kb [1]: 0.6 ± 0.0431 nM

SMILES: Cc1cc(CNC(=O)c2ccc([C@@H](C)[C@]3(C)CC(=O)NC3=O)cc2)cc(C2CCC2)n1 [Example 11, N-[(2-cyclobutyl-6-methylpyridin-4-yl)methyl]-4-{(1R)-1-[(3S)-3-methyl-2,5-dioxopyrrolidin-3-yl]ethyl}benzamide]
- Kb [1]: 0.11 ± 0.011 nM

SMILES: Cc1cc(CNC(=O)c2ccc([C@@H](C)[C@]3(C)CC(=O)NC3=O)cc2)cc(C2CCCC2)n1 [Example 12, N-[(2-cyclopentyl-6-methylpyridin-4-yl)methyl]-4-{(1R)-1-[(3S)-3-methyl-2,5-dioxopyrrolidin-3-yl]ethyl}benzamide]
- Kb [1]: 0.295 ± 0.056 nM
